The target in the experiment is Cyclin-dependent kinase 2/G1/S-specific cyclin-E1 (Homo sapiens, UniProt P24941). Kind of experiment: CDK Assay. The conditions noted are these: pH 7; 22 °C. The protocol:
The kinase activity was assayed using an in vitro scintillation proximity assay (SPA) for measuring incorporation of [gamma-33P] ATP into GST-Rb.

Molecules are shown by their SMILES. Where only a bound is given, the exact number is not on record here.

Usually IC50 stands for the point on the concentration scale where inhibition reaches its midpoint. A high value points to a need for much substance. Molecule `CCSc1ccc2ncc(-c3ccnc(Nc4ccc(S(=O)(=O)NCCOC)cc4)n3)n2c1` [4-({4-[6-(ethylsulfanyl)imidazo[1,2-a]pyridin-3-yl]pyrimidin-2-yl}amino)-N-(2-methoxyethyl)benzene-1-sulfonamide] came in with an IC50 of less than 3 nM.

The molecule `COCCNS(=O)(=O)c1ccc(Nc2nccc(-c3cnc4ccc(Br)cn34)n2)cc1` [4-[(4-{6-bromoimidazo[1,2-a]pyridin-3-yl}pyrimidin-2-yl)amino]-N-(2-methoxyethyl)benzene-1-sulfonamide] yielded an IC50 of less than 3 nM.

In turn, `COCCNS(=O)(=O)c1ccc(Nc2nccc(-c3cnc4ccc(C#N)cn34)n2)cc1` [4-[(4-{6-cyanoimidazo[1,2-a]pyridin-3-yl}pyrimidin-2-yl)amino]-N-(2-methoxyethyl)benzene-1-sulfonamide] returned an IC50 of less than 3 nM.

For `COCCN(C)S(=O)(=O)c1ccc(Nc2nccc(-c3cnc4cccnn34)n2)cc1` [4-[(4-{imidazo[1,2-a]pyridazin-3-yl}pyrimidin-2-yl)amino]-N-(2-methoxyethyl)-N-methylbenzene-1-sulfonamide], the IC50 amounted to 600 nM.

`COCCNS(=O)(=O)c1ccc(Nc2nccc(-c3cnc4cccnn34)n2)cc1` [4-[(4-{imidazo[1,2-a]pyridazin-3-yl}pyrimidin-2-yl)amino]-N-(2-methoxyethyl)benzene-1-sulfonamide] yielded a half-inhibitory concentration (IC50) of less than 3 nM.

The molecule `CNS(=O)(=O)c1ccc(Nc2nccc(-c3cnc4cccnn34)n2)cc1` [4-[(4-{imidazo[1,2-a]pyridazin-3-yl}pyrimidin-2-yl)amino]-N-methylbenzene-1-sulfonamide] gave a half-maximal inhibitory concentration (IC50) of less than 3 nM.

Take `NS(=O)(=O)c1ccc(Nc2nccc(-c3cnc4cccnn34)n2)cc1` [4-[(4-{imidazo[1,2-a]pyridazin-3-yl}pyrimidin-2-yl)amino]benzene-1-sulfonamide]: the IC50 is less than 3 nM.

Consider `COCCNS(=O)(=O)c1ccc(Nc2ncc(Sc3ccccc3)c(-c3cnc4ccccn34)n2)cc1` [4-[(4-{imidazo[1,2-a]pyridin-3-yl}-5-(phenylsulfanyl)pyrimidin-2-yl)amino]-N-(2-methoxyethyl)benzene-1-sulfonamide], for which the IC50 was greater than 10000 nM.

As to `c1ccc(Nc2nccc(-c3cnc4cccnn34)n2)cc1` [4-{imidazo[1,2-a]pyridazin-3-yl}-N-phenylpyrimidin-2-amine], the IC50 was 1000 nM.

Regarding `COCCNS(=O)(=O)c1ccc(Nc2nccc(-c3c(C)nc4cccnn34)n2)cc1` [N-(2-methoxyethyl)-4-[(4-{2-methylimidazo[1,2-a]pyridazin-3-yl}pyrimidin-2-yl)amino]benzene-1-sulfonamide], the IC50 turned out to be 3 nM.

Consider `COCCNS(=O)(=O)c1ccc(Nc2nccc(-c3cnc4ccc(OC)nn34)n2)cc1` [N-(2-methoxyethyl)-4-[(4-{6-methoxyimidazo[1,2-a]pyridazin-3-yl}pyrimidin-2-yl)amino]benzene-1-sulfonamide], for which the IC50 is 600 nM.

In the case of `CN(C)CCNS(=O)(=O)c1ccc(Nc2nccc(-c3cnc4cccnn34)n2)cc1` [N-[2-(dimethylamino)ethyl]-4-[(4-{imidazo[1,2-a]pyridazin-3-yl}pyrimidin-2-yl)amino]benzene-1-sulfonamide], the IC50 is 8 nM.

`CN(C)CCCNS(=O)(=O)c1ccc(Nc2nccc(-c3cnc4cccnn34)n2)cc1` [N-[3-(dimethylamino)propyl]-4-[(4-{imidazo[1,2-a]pyridazin-3-yl}pyrimidin-2-yl)amino]benzene-1-sulfonamide]: the IC50 was less than 3 nM.

These data come from BindingDB's records for doi:10.1016/j.bmcl.2004.02.008 (Astrazeneca, 2004).
